Test results as given in PMC6026317, “Molecular elements in FGF19 and FGF21 defining KLB/FGFR activity and specificity” (Molecular Metabolism, 2018).
Ends that are not written are not given here.

Experiments:
[1] = tested on: FGF21-induced ERK phosphorylation in human KLB overexpressing 293T HEK cells (293/KLB); test: Peptide antagonism of FGF21-induced pERK, AlphaLISA; assay type: cell-based; conditions: 293/KLB cells; fixed dose of FGF21, 10 min at 37° C; n = 3
Method: (§1) 293T HEK cells expressing KLB (or KL) or Hep3B cells were plated to 5–6 x 10^4 cells/well density in 96-well cell culture plate coated with poly-D-Lysine (Corning). The cells were serum starved for four hours in 0.1% BSA fraction V (ThermoFisher) containing media prior to treatment with protein and/or an antagonist peptide at the mentioned concentrations for 10 min at 37° C. For the antagonist assays, a chosen fixed dose within the range of 0.8–30 nM (depending on the cell type) of FGF21 or FGF19 stimulant was added to all the wells. BaF3 cells expressing human KLB/FGFR1c or human KLB/FGFR4-1c chimera were seeded at 5 × 10^5 cells/well density in 96-well cell culture plate and serum-starved overnight. FGF21/19 analogs were diluted in 0.02% Tween-20 containing RPMI1640 medium and the cells were treated for 15 min at 37° C. Following the respective cell treatments, the cells were lysed (with lysis buffer provided in the kit) for 10 min at room temperature on a shaker and the lysate was mixed with reaction mixture (consisting of reaction buffer, activation buffer, acceptor and donor beads provided in the kit). Phosphorylated ERK1/2 (pERK) levels were subsequently recorded by EnSpire Alpha or Envision Multilabel plate reader (Perkin Elmer). The cell assays corresponding to 293/KLB or Hep3B cells were carried out with AlphaLISA SureFire Ultra pERK1/2 (Thr 202/Tyr204) kit (Perkin Elmer), and BaF3 cells were done using AlphaScreen pERK1/2 (Thr202/Tyr204) kit (Perkin Elmer).
All cellular phosphorylation data were analyzed using 3-parameter non-linear regression curve in GraphPad Prism 7. Graphs are represented as relative maximal (100%) response of the positive control. All other test analog signals were adjusted accordingly as % values. For antagonistic assays, the difference between the p-ERK signal at baseline (fixed dose of FGF-stimulation, no antagonist peptide added) and the highest dose of the positive control, either FGF21^18−181, 21C25 or 19C26 for respective assay, was set to 100%. Similarly, for an agonist assay, the difference between the p-ERK signal of baseline (only cell culture medium, no agonist) and the highest dose of the positive control either FGF21 in 293/KLB cells or FGF19 in Hep3B cells was used to establish 100% response. Each peptide and protein analog was tested in triplicates in three independent experiments (n = 3), and normalized graphs plotted are expressed as mean ± SD unless otherwise noted.
The C-terminal region of FGF21 binds to KLB as previously implied by FGF21^18−181 antagonism. […] For comparative purposes, we utilized an in vitro assay in which we monitored dose-dependent attenuation of FGF-induced ERK phosphorylation in human KLB overexpressing 293T HEK cells (293/KLB).

[2] = tested on: FGF19 signaling in 293/KLB cells; test: Peptide antagonism of FGF19-induced pERK, AlphaLISA; assay type: cell-based, human; conditions: fixed dose of FGF19, 10 min at 37° C, n = 3
Method: as §1, with “Following the respective cell treatments, the cells were lysed (with lysis buffer provided in the kit) for 10 min at room temperature on a shaker and the lysate was mixed with reaction mixture (consisting of reaction buffer, activation buffer, acceptor and donor beads provided in the kit).” left out, “The cell assays corresponding to 293/KLB or Hep3B cells were carried out with AlphaLISA SureFire Ultra pERK1/2 (Thr 202/Tyr204) kit (Perkin Elmer), and BaF3 cells were done using AlphaScreen pERK1/2 (Thr202/Tyr204) kit (Perkin Elmer).” left out
(§2) All cellular phosphorylation data were analyzed using 3-parameter non-linear regression curve in GraphPad Prism 7. […] Each peptide and protein analog was tested in triplicates in three independent experiments (n = 3), and normalized graphs plotted are expressed as mean ± SD unless otherwise noted.

lean (C57BL/6J) mice = test: In vivo peptide antagonism study, cFos and EGR1 mRNA in pancreas and eWAT; parameters: species or system mouse; conditions: WAT and pancreas
From the text: All animal studies were approved by and performed according to the guidelines of the Institutional Animal Care and Use Committee of the University of Cincinnati (Cincinnati, USA). Eight-week old male C57BL/6J mice (Jackson Laboratories) were given ad libitum access to either a chow diet (lean mice), or a high-fat high-sugar diet (HFD, DIO mice) containing 58% kcal from fat (Research Diets, catalog# D12331). For DIO mice, animals were maintained on the HFD for a minimum of 3 months prior to initiation of the pharmacological studies. The mice were maintained at 22 °C on a 12-h light–dark cycle with free access to water. Before the beginning of the studies, mice were randomized into treatment groups according to body weight. All injections and tests were performed during the light cycle with a group size of n = 8.
Mice were administered vehicle, FGF21 (1 mg/kg), or FGF19 (1 mg/kg) alone or in combination with 19C26,A^26 (30 mg/kg), (dosed 15 min prior to FGF21 or FGF19 administration) via sc injections. One-hour post FGF21 or FGF19 dosing, the mice were sacrificed and their plasma, pancreas, and epididymal white adipose tissue (eWAT) were harvested for analyses. Total RNA was isolated from pancreatic and eWAT tissues using Trizol phenol-chloroform extraction (Invitrogen, Cat#155596026) and purified using an RNeasy mini (Cat#74104) and on-column DNAse digest (Cat#79254) kits (Qiagen). Following reverse transcription, levels of cFos and early growth response-1 (EGR1) mRNA levels were subsequently probed by quantitative PCR (ThermoFisher) and analyzed by ΔΔCT method.
Statistical analyses for in vivo experiments were performed on data using a one- (Figure 5A,B and 5D) or two-way (Figure 5C) ANOVA followed by Tukey post hoc multiple comparison analysis. All results are presented as mean ± SEM, n = 5–8, and P < 0.05 was considered significant. Group size estimations were based upon a power calculation to minimally yield an 80% chance to detect a significant difference in body weight of P < 0.05.

[3] = tested on: FGF19 signaling in Hep3B cells; test: Peptide antagonism of FGF19 signaling in Hep3B cells; assay type: cell-based, human; conditions: n = 3
Method: as §1, with “Following the respective cell treatments, the cells were lysed (with lysis buffer provided in the kit) for 10 min at room temperature on a shaker and the lysate was mixed with reaction mixture (consisting of reaction buffer, activation buffer, acceptor and donor beads provided in the kit).” left out, “The cell assays corresponding to 293/KLB or Hep3B cells were carried out with AlphaLISA SureFire Ultra pERK1/2 (Thr 202/Tyr204) kit (Perkin Elmer), and BaF3 cells were done using AlphaScreen pERK1/2 (Thr202/Tyr204) kit (Perkin Elmer).” left out
as §2

[4] = tested on: signaling of FGF1 in 293/KLB cells; test: Peptide antagonism of FGF1 signaling in 293/KLB cells; assay type: cell-based, human; conditions: data not shown
[5] = tested on: signaling of FGF23 in 293/KL cells overexpressing human Klotho; test: Peptide antagonism of FGF23 signaling in 293/KL cells; assay type: cell-based; conditions: data not shown
293/KLB cells = test: Agonist pERK AlphaLISA assay in 293/KLB cells; assay type: cell-based, human; conditions: 10 min at 37° C, n = 3
Method: as §1
as §2, with “7. Graphs are represented as relative maximal (100%) response of the positive control. All other test analog signals were adjusted accordingly as % values.” for “7.”

human FGFR1c/KLB = biological target: T1, human FGFR1c/KLB (Homo sapiens, UniProt P11362+Q86Z14); test: AlphaScreen cell-free binding assay, displacement of biotinylated FGF21; conditions: peptides compete with FGF21 for human FGFR1/KLB complex, mean, n = 2, NC = Not Calculated due to negligible activity at the tested concentrations
T1 construct: while adding human soluble KLB generated a signal; purchased R&D Systems
T1 sequence (Q86Z14 1-996 limits assumed): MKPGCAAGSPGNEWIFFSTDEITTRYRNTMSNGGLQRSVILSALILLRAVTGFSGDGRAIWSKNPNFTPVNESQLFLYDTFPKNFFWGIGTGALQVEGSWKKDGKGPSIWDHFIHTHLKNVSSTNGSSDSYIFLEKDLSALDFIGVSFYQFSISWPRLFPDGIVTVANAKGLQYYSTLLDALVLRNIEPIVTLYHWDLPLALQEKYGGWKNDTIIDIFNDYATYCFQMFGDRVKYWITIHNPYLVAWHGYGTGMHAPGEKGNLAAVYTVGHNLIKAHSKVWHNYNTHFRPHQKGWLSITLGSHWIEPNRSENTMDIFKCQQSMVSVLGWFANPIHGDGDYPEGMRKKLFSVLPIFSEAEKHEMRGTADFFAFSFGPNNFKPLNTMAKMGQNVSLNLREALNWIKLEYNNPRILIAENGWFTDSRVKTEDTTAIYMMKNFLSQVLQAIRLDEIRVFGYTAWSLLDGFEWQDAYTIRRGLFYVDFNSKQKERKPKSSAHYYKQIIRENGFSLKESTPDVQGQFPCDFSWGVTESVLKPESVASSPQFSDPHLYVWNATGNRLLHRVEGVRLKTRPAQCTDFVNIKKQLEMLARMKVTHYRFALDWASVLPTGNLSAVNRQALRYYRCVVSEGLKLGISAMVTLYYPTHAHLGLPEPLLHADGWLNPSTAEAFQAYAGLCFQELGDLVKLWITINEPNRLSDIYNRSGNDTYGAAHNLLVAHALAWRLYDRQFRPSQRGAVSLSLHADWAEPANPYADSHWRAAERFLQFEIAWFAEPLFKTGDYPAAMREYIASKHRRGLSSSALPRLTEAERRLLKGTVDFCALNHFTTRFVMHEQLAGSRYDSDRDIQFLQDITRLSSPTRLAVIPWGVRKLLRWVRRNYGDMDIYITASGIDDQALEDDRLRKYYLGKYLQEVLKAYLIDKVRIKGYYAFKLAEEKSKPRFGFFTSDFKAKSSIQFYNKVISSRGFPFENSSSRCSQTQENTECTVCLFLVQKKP
T1 sequence (P11362 22-376 partner limits assumed): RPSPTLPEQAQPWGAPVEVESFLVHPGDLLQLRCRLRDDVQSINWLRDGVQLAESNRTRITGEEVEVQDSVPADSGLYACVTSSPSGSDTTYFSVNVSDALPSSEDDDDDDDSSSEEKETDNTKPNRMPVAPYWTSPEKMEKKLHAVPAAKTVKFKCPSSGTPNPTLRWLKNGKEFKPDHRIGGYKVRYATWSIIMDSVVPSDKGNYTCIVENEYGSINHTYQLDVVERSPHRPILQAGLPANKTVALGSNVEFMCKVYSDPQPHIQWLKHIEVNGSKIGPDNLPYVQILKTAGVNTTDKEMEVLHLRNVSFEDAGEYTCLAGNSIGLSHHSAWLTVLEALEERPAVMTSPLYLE
Method: Biotinylated FGF21 was coupled to Streptavidin-coated donor beads (AlphaScreen technology, Perkin Elmer), and the ectodomains of human FGFR4 fused to Fc (R&D Systems) or FGFR1c fused to Fc (R&D Systems) were coupled to Protein A acceptor beads (AlphaScreen technology, Perkin Elmer). Human KLB protein (R&D Systems) was added to the mixture of biotinylated-FGF21-Streptavidin donor beads and FGFR-Fc-Protein A acceptor beads, bringing the beads in close proximity producing a signal, in the presence of 5 μg/ml Heparin and 0.1% BSA. Increasing doses of FGF21 C-terminal peptides were added and if their binding to the receptor complex were to take place, the biotinylated FGF21 would be displaced to consequently decrease the signal. The EnVision Multilabel Plate Reader (Perkin Elmer) was used to quantify the emitted light signal at 570 nm.
Supplementary file mmc1.pdf: Multimedia component 1 Table S1. Nomenclature for FGF protein and C-terminal peptide analogs. Table S2. Receptor binding of C-terminal FGF21 Ala-scan peptides. IC50 values (μM, mean, n = 2) with fold-change for 21C25 Ala-scan peptides versus native peptide in a cell free AlphaScreen binding assay where the 21C25 Ala peptides competed with FGF21 to associate with the human FGFR1/KLB complex. NC denotes where IC50 values were Not Calculated due to negligible activity at the tested concentrations.

19C25: FGF19-based C-terminal peptide of 25 amino acids (LETDSMDPFGLVTGLEAVRSPSFEK-NH2)
Antagonism of FGF21 signaling (pERK), in words [1]: comparable to FGF21^18−181 in their antagonistic effect

19C26,A^26: 19C26 with alanine substitution of the terminal lysine; most potent peptide antagonist (PLETDSMDPFGLVTGLEAVRSPSFEA-NH2)
Antagonism of FGF21 signaling (pERK), in words [1]: at least twenty-fold greater potency | Antagonism of FGF19 signaling (pERK), in words [2]: at least twenty-fold greater potency | cFos and EGR1 mRNA levels, peptide antagonist alone (lean (C57BL/6J) mice; 30 mg/kg sc): no effect on cFos and EGR1 mRNA levels | Block of FGF19- or FGF21-stimulated cFos and EGR1 gene induction (lean (C57BL/6J) mice; antagonist 30 mg/kg sc 15 min before FGF19 or FGF21 1 mg/kg sc, one hour post dosing): completely eliminated the ability of FGF19 or FGF21 to stimulate gene induction

19C26: FGF19-based C-terminal peptide of 26 amino acids (169-194), C-terminal amide (PLETDSMDPFGLVTGLEAVRSPSFEK-NH2)
Antagonism of FGF21 signaling (pERK), in words [1]: comparable to FGF21^18−181 in their antagonistic effect | Antagonism of FGF19 signaling (pERK), in words [2]: blocked FGF19 activity comparably to that of FGF21 | Antagonism of FGF19 signaling (pERK), in words [3]: blocked FGF19 activity comparably to that of FGF21 | Attenuation of FGF1 signaling, in words [4]: unable to attenuate signaling of FGF1 | Attenuation of FGF23 signaling, in words [5]: unable to attenuate signaling

21C22: C-terminal FGF21 peptide of 22 residues (VGSSDPLSMVGPSQGRSPSYAS-NH2; UniProt Q9NSA1 188-209, looked up, fragment)
Antagonism of FGF21 signaling (pERK), in words [1]: had no effect within the dose range examined

FGF2
pERK agonist activity, in words (293/KLB cells): picomolar activities

FGF19: Human FGF19 (#O95750: 23–216, designated 1–194)
pERK agonist activity, in words (293/KLB cells): nanomolar potencies | cFos and EGR1 transcriptional activity, FGF alone (lean (C57BL/6J) mice; 1 mg/kg sc, one hour): induced robust transcriptional activity in each tissue

PPDVGSSDPLSMVGPSQARSPSYAS-NH2 [174 G]
IC50 (human FGFR1c/KLB): 0.15 µM

PPDVGSSDPLSMVGPSQGASPSYAS-NH2 [175 R]
IC50 (human FGFR1c/KLB): 0.05 µM

PPDVGSSDPLSMVGPSQGRSPSYAA-NH2 [181 S]
IC50 (human FGFR1c/KLB): 0.05 µM

PPDVGSSDPLSMVGPSQGRSPSYAS-NH2 [21C25]
IC50 (human FGFR1c/KLB): 0.15 µM
